The source of these data is US6090610A, “Macrolide compound 0406” (Higeta Shoyu Co., Ltd., priority 1996, dated 2000).

Structures are written as SMILES. In brackets after ≈: the same amount, converted by molar mass.

Data set [1] relates to Nocardia brasiliensis IFM 0406. The experiment in a line: Sensitivity of Nocardia brasiliensis IFM 0406 against antibiotics. Type of data set: cell-based. On the procedure: The strain was cultured in a culture medium (brain heart infusion containing 2% glucose) at 30° C. with shaking at 250 rpm for 72 hours, and the cells grown in the medium were collected by centrifuge at 3,000 rpm for 10 minutes, which were then washed twice in distilled water. Further, the cells were washed in ethanol and subsequently dried in vacuum to give the dry cells. According to Bergey's Manual of Determinative Bacteriology, the 9-th edition, Williams & Willkins, Baltimore, 1993, the amino acid composition, sugar composition and lipid composition of the dry cells were determined. Meso-diamino pimelic acid was detected by the amino acid analysis, while arabinose and galactose were detected by the sugar analysis. Also, the presence of mycolic acid was determined by the lipid analysis, and the type of the acid was Nocardia type. MK-8(H4) cycle was confirmed as a principal component of the isoprenoid quinone which is a part of the bacterial lipid, while as the trace components, MK-8(H4), MK-8(H), and MK-9(H2) were confirmed. Based onthe decomposition of adenine, casein, hypoxanthine and tyrosine and additionally on the formation patterns of acids from sugar and the antimicrobial sensitivity patterns, shown in Table 4 (Mikami & Yazawa, Susceptibility pattern of pathogenic Nocardia to some selected antimicrobial agents and their usefulness in the identification work in a clinical laboratory: BuLL. JFCC, 5: 89, 1989), the bacterial strain was identified as the species N. brasiliensis. The results of the analysis of the G+C content and DNA homology support strongly that the strain is N. brasiliensis.

Data set [2] deals with murine T cells (C57BL/6 splenocytes as responder cells). Description: Murine mixed lymphocyte reaction (MLR), T-cell blast formation by tritium-labeled thymidine uptake. Type of data set: cell-based. To be noted: Mus musculus, 96 h culture + 7 h labeling, read-out: IC50 (MLR, inhibition of tritium-labeled thymidine uptake).
Data set [3] in a line: Cytotoxity test, 3H-thymidine uptake, HEK-297. It counts as cell-based. To be noted: human, hek-297 cells; HEK-297, 96 h; read-out: IC50 (cytotoxity). As for the experimental part:
(§1) After culturing for 96 hours, ^3 H-thymidine (0.5 μCi/well) was added into each well. The microtiter plate was incubated for 4 hours, followed by trypsin treatment of the cell lines excluding YAC-1, and the resulting cells were recovered on glass fiber filters to measure the radioactivity incorporated into the cells by means of a liquid scintillation counter. From the radioactivity (c) of a well with no addition of any sample and the radioactivity (t) of each of the wells with addition of the individual samples, the growth inhibition rate was determined by the formula […] (%). IC50 was calculated from the results.

Data set [4] can be described thus: Cytotoxity test, 3H-thymidine uptake, Cos-1. It counts as cell-based. To be noted: monkey, cos-1 cells; Cos-1, 96 h; read-out: IC50 (cytotoxity). As for the experimental part:
as §1

Data set [5] in a line: Cytotoxity test, 3H-thymidine uptake, YAC-1. Type of data set: cell-based. The settings on record: mouse, yac-1 cells; YAC-1, 96 h; read-out: IC50 (cytotoxity). On the procedure: as §1
Data set [6] in a line: Cytotoxity test, 3H-thymidine uptake, HeLa. It counts as cell-based. To be noted: human, hela cells, read-out: IC50 (cytotoxity). On the procedure: as §1
The test system of data set [7] is cultured cell lines (HEK-297, Cos-1, YAC-1, HeLa). Description: Cytotoxity test, overall comparison on cultured cell lines. Type of data set: cell-based. The settings on record: in words. As for the experimental part: (1) The cytotoxity test of compound 0406-A shown in Example 1 was carried out against cultured cell lines.
Cell suspensions (5.6×10^4 cells/ml) were prepared by using the Minimum Essential Medium (MEM)-Dulbecco's medium for HEK-297, Cos-1, and Hela cells, and the RPMI 1640 medium for YAC-1 cells (all media containing 10% bovine serum). Samples (0406A, Cyclosporin and Ascomycin) were prepared by serial two-fold dilution starting from 1 mg/ml, by using the individual media. A cell suspension (180 μl) and a sample solution (20 μl) were added into each well of a 96-well microtiter plate, for culturing at 37° C. in wet 5% CO2 -95% air environment. After culturing for 96 hours, ^3 H-thymidine (0.5 μCi/well) was added into each well. The microtiter plate was incubated for 4 hours, followed by trypsin treatment of the cell lines excluding YAC-1, and the resulting cells were recovered on glass fiber filters to measure the radioactivity incorporated into the cells by means of a liquid scintillation counter. From the radioactivity (c) of a well with no addition of any sample and the radioactivity (t) of each of the wells with addition of the individual samples, the growth inhibition rate was determined by the formula […] (%). IC50 was calculated from the results.

In data set [8] the test system is cytotoxic T-cell (CTL) generation. The experiment in a line: In vitro cytotoxic T-cell activity (inhibitory effect on CTL generation induced by murine mixed lymphocyte reaction), 51Cr release from EL-4 cells. Type of data set: cell-based. To be noted: for Cytotoxic T-cell activity: lytic units per 10^7 effector cells. On the procedure: (2) In vitro cytotoxic T-cell activity (CTL: cytotoxic T-cell) (Inhibitory effect on CTL generation, induced by murine mixed lymphocyte reaction)
A suspension solution (5.5×10^6 cells/ml; 0.9 ml) of BALB/C (H-2^d) splenocytes prepared in the same manner as in Example 2, a suspension solution (5.5×10^6 cells/ml; 0.9 ml) of C57BL/6 (H-2^b) splenocytes preliminarily treated with mitomycin C, and a sample solution (0.2 ml) were added into a 24-well multi-dish, for culturing at 37° C. under conditions of 5% CO2 -95% air for 5 days. After completion of cultivation, the cells were recovered by centrifuge, which were then suspended in the RPMI 1640 medium containing 10% bovine serum, for use as the effector cells.
EL-4 cells (H-2^b) were used as the target cells. The incubation of the EL-4 cells (10^6) with 0.1 μCi Na2^51 CrO4 at 37° C. for 3 hours promoted the ^51 Cr uptake in the cells, and subsequently, the cells were washed and the concentration was adjusted to 2×10^5 cells/ml for use as the target cells.
The determination of the cytotoxic T-cell generation was carried out as follows. The effector cell suspension (100 μl) and the target cell suspension (100 μl) were added into a 96-well round-bottom microtiter plate for cultivation at 37° C. for 4 hours, to measure ^51 Cr release in the supernatant. Then, the cytotoxic T-cell activity was calculated by the formulated below.
Cytotoxic T-cell activity =
[radioactivity of (effector cell + target cell)] -
(radioactivity of target cell alone)/
(radioactivity of target cell treated with 0.1N HCl) -
(radioactivity of target cell alone) × 100
The activity of the cytotoxic T cell was represented in lytic unit (LU). The activity in LU was represented per 10^7 effector cells, when 1 LU was designated as the number of effector cells required for 20% lysis of the 2×10^4 target cells.

A further data set in a line: Solubility. Type of data set: physicochemical.
For data set [9] the following is noted: in words; cited from earlier work.

As usually defined, the IC50 is the concentration that gives 50% inhibition. In general, inhibition refers to the relative decrease from the control value, in per cent.

As for `O=c1[nH]cc(F)c(=O)[nH]1` [5-FU], in data set [1], the Sensitivity against antibiotics result is recorded as “negative”.
Consider `CCCCC(=O)OC1CC(OC(C)C(C)C(O)C(C)C(O)C(C)C2OC(=O)C=CCC(O)CC(O)CC(O)CCC(C)C(O)CC3(O)OC(CC(O)CC(OC(=O)CC(=O)O)CCCC(O)C4OC4C2C)CC(O)C3O)OC(C)C1O` (stereo not drawn) [0406-A], for which the IC50 in [2] came out at 0.16 µg/mL. In addition, the CC50 at 96 h in data set [3], in data set [4], in [5] and in [6] was more than 100 µg/mL each time. In [7], the “cytotoxity level versus commercially available immuno suppressive agents” value was “lower than that of the commercially available immuno suppressive agents”. In addition, the “Cytotoxic T-cell activity” value in data set [8] (126 ng/ml) was 22.0 u; in data set [8] (625 ng/ml), 12.5 u; in [8] (2,500 ng/ml), 0.1 u; in data set [8] (10,000 ng/ml), less than 0.1 u. For the same molecule, the inhibition at 0.126 µg/mL in [8] (Mus musculus, T-cell, 120 h, 126 ng/ml, read-out: Inhibition rate (cytotoxic T-cell activity)) was 0%. Moreover, the inhibition at 0.625 µg/mL in data set [8] (Mus musculus, T-cell, 120 h, 625 ng/ml, read-out: Inhibition rate (cytotoxic T-cell activity)) is 39.5%. In addition, the inhibition at 2.5 µg/mL in data set [8] (Mus musculus, T-cell, 120 h, 2,500 ng/ml, read-out: Inhibition rate (cytotoxic T-cell activity)) came to 99.5%. In addition, the inhibition at 10 µg/mL in data set [8] (Mus musculus, T-cell, 120 h, 10,000 ng/ml, read-out: Inhibition rate (cytotoxic T-cell activity)) was more than 99.5%. Moreover, the “induction of CTL” value in data set [8] (in words, dose dependence) was “decreased the induction of CTL in a dose-dependent manner”. For the same molecule, the Solubility entry in the data set “Solubility” (chloroform, ethyl acetate, ether) is “Insoluble in chloroform, ethyl acetate and ether”; in the data set “Solubility” (water, methanol, ethanol, DMSO), “Soluble in water, methanol, ethanol and DMSO”.
For `CC[C@@H]1/C=C(\C)C[C@H](C)C[C@H](OC)[C@H]2O[C@@](O)(C(=O)C(=O)N3CCCC[C@H]3C(=O)O[C@H](/C(C)=C/[C@@H]3CC[C@@H](O)[C@H](OC)C3)[C@H](C)[C@@H](O)CC1=O)[C@H](C)C[C@@H]2OC` [Ascomycin, reference compound], the IC50 in data set [2] came out at 0.008 µg/mL. For the same molecule, the CC50 at 96 h worked out at 25 µg/mL (≈ 31.6 µM) in data set [3], 58 µg/mL (≈ 73.2 µM) in data set [4], 50 µg/mL (≈ 63.1 µM) in [5] and 13 µg/mL (≈ 16.4 µM) in [6].
Take `C[C@@H](O)[C@H]1C(=O)N2C(C(=O)O)=C(SCCN=CN)C[C@H]12` [imipenem]: the Sensitivity against antibiotics result in data set [1] is “negative”.
Still for that read-out and setting: for `NC[C@H]1O[C@H](O[C@H]2[C@H](O)[C@@H](O[C@H]3O[C@H](CO)[C@@H](O)[C@H](N)[C@H]3O)[C@H](N)C[C@@H]2N)[C@H](O)[C@@H](O)[C@@H]1O` [kanamycin] the value was “negative”.
For `C=CC[C@@H]1/C=C(\C)C[C@H](C)C[C@H](OC)[C@H]2O[C@@](O)(C(=O)C(=O)N3CCCC[C@H]3C(=O)O[C@H](/C(C)=C/[C@@H]3CC[C@@H](O)[C@H](OC)C3)[C@H](C)[C@@H](O)CC1=O)[C@H](C)C[C@@H]2OC` [tacrorims], the side effects entry in [9] is “deleterious in the pancreas and the kidney”.
As for `NC[C@H]1O[C@H](O[C@H]2[C@H](O)[C@@H](O[C@H]3O[C@H](CO)[C@@H](O)[C@H](N)[C@H]3O)[C@H](N)C[C@@H]2N)[C@H](N)C[C@@H]1O` [tobramycin], the Sensitivity against antibiotics entry in [1] is on record as “positive”.
